One test concerns the target T1, human glucagon receptor (Homo sapiens, UniProt P47871).
T1 construct: expressed in transfected cells; host or cells: CHO DG44
The test can be described thus: cAMP response in CHO cell line expressing human glucagon receptor. The test is classed as cell-based. Conditions: read-out: EC50 CHO/GCGR. The protocol:
The PCR product was cloned into the known animal cell expression vector x0GC/dhfr to prepare a recombinant vector x0GC/GCGR.
CHO DG44 cell line cultured in DMEM/F12 (10% FBS) medium was transfected with the recombinant vector x0GC/GCGR using LIPOFECTAMINE®, and cultured in a selection medium containing 1 mg/mL G418 and 10 nM methotraxate.
The cultured cells were washed with KRB buffer and suspended in 40 ml of KRB buffer containing 1 mM IBMX, and left at room temperature for 5 minutes. […] Then, 20 mL of cell lysis buffer was added for cell lysis, and the cell lysates were applied to a cAMP assay kit (Molecular Device, USA) to measure cAMP concentrations. EC50 values were calculated therefrom, and compared to each other.

The conditions of test [1]: taken for 1 year; cited from earlier work.

T1 sequence (P47871 26-477): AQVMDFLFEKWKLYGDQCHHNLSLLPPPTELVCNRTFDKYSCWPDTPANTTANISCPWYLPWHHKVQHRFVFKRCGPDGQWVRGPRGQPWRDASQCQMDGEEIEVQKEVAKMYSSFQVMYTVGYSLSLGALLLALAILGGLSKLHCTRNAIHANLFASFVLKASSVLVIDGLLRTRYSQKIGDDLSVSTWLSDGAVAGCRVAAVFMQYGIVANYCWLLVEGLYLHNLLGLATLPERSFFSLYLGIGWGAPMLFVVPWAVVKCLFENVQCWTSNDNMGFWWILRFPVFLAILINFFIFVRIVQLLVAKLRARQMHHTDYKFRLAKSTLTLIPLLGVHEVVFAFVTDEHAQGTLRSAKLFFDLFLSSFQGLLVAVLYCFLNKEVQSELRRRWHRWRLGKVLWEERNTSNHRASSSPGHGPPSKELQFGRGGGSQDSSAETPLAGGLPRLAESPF

Take `CSCC[C@H](NC(=O)[C@H](CC(C)C)NC(=O)[C@H](Cc1c[nH]c2ccccc12)NC(=O)[C@H](CCC(N)=O)NC(=O)[C@@H](NC(=O)[C@H](Cc1ccccc1)NC(=O)[C@H](CCC(=O)O)NC(=O)[C@H](CCCCN)NC(=O)[C@H](C)NC(=O)[C@H](CCCNC(=N)N)NC(=O)[C@H](CCCCN)NC(=O)[C@H](CCC(=O)O)NC(=O)[C@H](CC(=O)O)NC(=O)[C@H](CC(C)C)NC(=O)[C@H](Cc1ccc(O)cc1)NC(=O)[C@H](CCCCN)NC(=O)[C@H](CO)NC(=O)[C@H](Cc1ccc(O)cc1)NC(=O)[C@H](CC(=O)O)NC(=O)[C@H](CO)NC(=O)[C@@H](NC(=O)[C@H](Cc1ccccc1)NC(=O)[C@@H](NC(=O)CNC(=O)[C@H](CCC(N)=O)NC(=O)C(C)(C)NC(=O)[C@@H](N)Cc1c[nH]cn1)[C@@H](C)O)[C@@H](C)O)C(C)C)C(=O)N[C@@H](CC(N)=O)C(=O)N[C@H](C(=O)N[C@@H](CS)C(=O)O)[C@@H](C)O` [SEQ ID NO. 24]: the EC50 at human glucagon receptor worked out at 6.95 nM.

Regarding `CSCC[C@H](NC(=O)[C@H](CC(C)C)NC(=O)[C@H](Cc1c[nH]c2ccccc12)NC(=O)[C@H](CCC(N)=O)NC(=O)[C@@H](NC(=O)[C@H](Cc1ccccc1)NC(=O)[C@H](CCC(=O)O)NC(=O)[C@@H]1CCCCNC(=O)CC[C@H](NC(=O)[C@H](CC(=O)O)NC(=O)[C@H](CC(C)C)NC(=O)[C@H](Cc2ccc(O)cc2)NC(=O)[C@H](CCCCN)NC(=O)[C@H](CO)NC(=O)[C@H](Cc2ccc(O)cc2)NC(=O)[C@H](CC(=O)O)NC(=O)[C@H](CO)NC(=O)[C@@H](NC(=O)[C@H](Cc2ccccc2)NC(=O)[C@@H](NC(=O)CNC(=O)[C@H](CCC(N)=O)NC(=O)C(C)(C)NC(=O)[C@@H](N)Cc2c[nH]cn2)[C@@H](C)O)[C@@H](C)O)C(=O)N[C@@H](CCCCN)C(=O)N[C@@H](CCCNC(=N)N)C(=O)N[C@@H](C)C(=O)N1)C(C)C)C(=O)N[C@@H](CC(N)=O)C(=O)N[C@H](C(=O)N[C@@H](CS)C(=O)O)[C@@H](C)O` [SEQ ID NO. 25], at human glucagon receptor, the EC50 was determined as 1.3 nM.

With `CCCCCCCCCCC[C@@H](C[C@@H]1OC(=O)[C@H]1CCCCCC)OC(=O)[C@H](CC(C)C)NC=O` [orlistat], the weight loss in test [1] is 4 kg.
